Results taken from patent US10294202B2, “Pyrrolidinones as herbicides” (FMC Corporation, priority 2013, dated 2019).

Experiments:
velvetleaf = assay: Test E preemergence herbicide test; assay type: in vivo, Abutilon theophrasti; parameters: key: 0 = no effect, 100 = complete control
Text: (§1) Seeds of plant species selected from corn (Zea mays), soybean (Glycine max), velvetleaf (Abutilon theophrasti), lambsquarters (Chenopodium album), wild poinsettia (Euphorbia heterophylla), pigweed, palmer (palmer pigweed, Amaranthus palmeri), waterhemp (common waterhemp, Amaranthus rudis), surinam grass (Brachiaria decumbens), crabgrass, large (large crabgrass, Digitaria sanguinalis), crabgrass, Brazil (Brazilian crabgrass, Digitaria horizontalis), panicum, fall (fall panicum, Panicum dichotomiflorum), foxtail, giant (giant foxtail, Setaria faberii), foxtail, green (green foxtail, Setaria viridis), goosegrass (Eleusine indica), johnsongrass (Sorghum halepense), ragweed (common ragweed, Ambrosia elatior), barnyardgrass (Echinochloa crus-galli), sandbur (southern sandbur, Cenchrus echinatus), arrowleaf […] rhombifolia), ryegrass, Italian (Italian ryegrass, Lolium multiflorum), dayflower, VA (Virginia dayflower, Commelina virginica), field bindweed (Convolvulus arvensis), morningglory (Ipomoea coccinea), nightshade (eastern black nightshade, Solanum ptycanthum), kochia (Kochia scoparia), nutsedge, yellow (yellow nutsedge, Cyperus esculentus), cocklebur (common cocklebur, Xanthium strumarium), smartweed (ladysthumb smartweed, Polygonum Persicaria) and beggarticks (hairy beggarticks, Bidens pilosa), were planted into a silt loam soil and treated preemergence with test chemicals formulated in a non-phytotoxic solvent mixture which included a surfactant. Treated plants and controls were maintained in a greenhouse for 21 days, after which time all species were compared to controls and visually evaluated. Plant response ratings, summarized in Table E, are based on a scale of 0 to 100 where 0 is no effect and 100 is complete control. A dash (-) response means no test result.

canarygrass = assay: Test D pre-/postemergence herbicide test; assay type: in vivo, Phalaris minor; details: for Plant response rating, Canarygrass: scale 0 to 100 (0 no effect, 100 complete control); for Plant response rating: Canarygrass, scale 0 to 100
Text: (§2) Seeds of plant species selected from bluegrass (annual bluegrass, Poa annua), blackgrass (Alopecurus myosuroides), canarygrass (littleseed canarygrass, Phalaris minor), chickweed (common chickweed, Stellaria media), galium (catchweed bedstraw, Galium aparine), bromegrass, downy (downy bromegrass, Bromus tectorum), field poppy (Papaver rhoeas), field violet (Viola arvensis), foxtail, green (green foxtail, Setaria viridis), deadnettle (henbit deadnettle, Lamium amplexicaule), ryegrass, Italian (Italian ryegrass, Lolium multiflorum), kochia (Kochia scoparia), lambsquarters (Chenopodium album), oilseed rape (Brassica napus), pigweed (Amaranthus retroflexus), chamomile (scentless chamomile, Matricaria inodora), Russian thistle (Salsola kali), speedwell (bird's-eye speedwell, Veronica persica), barley, spring (spring barley, Hordeum vulgare), wheat, spring (spring wheat, Triticum aestivum), buckwheat, wild (wild buckwheat, Polygonum convolvulus), mustard, wild (wild mustard, Sinapis arvensis), oat, wild (wild oat, Avena fatua), radish, wild (wild radish, Raphanus raphanistrum), […]), barley, winter (winter barley, Hordeum vulgare), and wheat, winter (winter wheat, Triticum aestivum) were planted into a silt loam soil and treated preemergence with test chemicals formulated in a non-phytotoxic solvent mixture which included a surfactant. At the same time, these species were planted in pots containing Redi-Earth® planting medium (Scotts Company, 14111 Scottslawn Road, Marysville, Ohio 43041) comprising spaghnum peat moss, vermiculite, wetting agent and starter nutrients and treated with postemergence applications of the test chemicals formulated in the same manner. Plants ranged in height from 2 to 18 cm (1- to 4-leaf stage). Treated plants and controls were maintained in a controlled growth environment for 7 to 21 days after which time all species were compared to controls and visually evaluated. Plant response ratings, summarized in Table D, are based on a scale of 0 to 100 where 0 is no effect and 100 is complete control. A dash (-) response means no test result.

nightshade = assay: Test E preemergence herbicide test; assay type: in vivo, Solanum ptycanthum; parameters: key: 0 = no effect, 100 = complete control
Text: as §1

oilseed rape = assay: Test D pre-/postemergence herbicide test; assay type: in vivo, Brassica napus; details: for Plant response rating, Oilseed Rape: Preemergence, scale 0 to 100 (0 no effect, 100 complete control); for Plant response rating: Postemergence, Oilseed Rape, scale 0 to 100
In short: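 Postemergence sprays were made on plants at the 1- to 4-leaf stage in peat-based medium, and preemergence sprays on seeds planted in silt loam. The formulation was a non-phytotoxic solvent mixture containing surfactant. Plants were compared with controls after 7 to 21 days and rated visually on a 0–100 scale.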

goosegrass = assay: Test E preemergence herbicide test; assay type: in vivo, Eleusine indica; parameters: key: 0 = no effect, 100 = complete control
In short: (§3)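 Greenhouse preemergence test: seeds sown into silt loam received compound in a non-phytotoxic solvent mixture with surfactant. Plants grew 21 days before visual comparison with controls. Scores run from 0, no effect, to 100, complete control.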

blackgrass = assay: Test D pre-/postemergence herbicide test; assay type: in vivo, Alopecurus myosuroides; details: for Plant response rating, Blackgrass: scale 0 to 100 (0 no effect, 100 complete control); for Plant response rating: Blackgrass, scale 0 to 100
Text: as §2

nutsedge, yellow = assay: Test E preemergence herbicide test; assay type: in vivo, Cyperus esculentus; parameters: key: 0 = no effect, 100 = complete control
In short: as §3

Structure (SMILES): O=C1NC[C@H](c2cccc(C(F)(F)F)c2)[C@H]1C(=O)Nc1cccc(F)c1F [Compound 206]
- Plant response rating, Velvetleaf (velvetleaf; 31 g ai/ha): 0
- Plant response rating, Velvetleaf (velvetleaf; 62 g ai/ha): 35
- Plant response rating, Velvetleaf (velvetleaf; 125 g ai/ha): 30
- Plant response rating, Velvetleaf (velvetleaf; 250 g ai/ha): 50
- Plant response rating, Canarygrass (canarygrass; Preemergence, 62 g ai/ha): 75
- Plant response rating, Canarygrass (canarygrass; Preemergence, 125 g ai/ha): 85
- Plant response rating, Canarygrass (canarygrass; Preemergence, 31 g ai/ha): 55
- Plant response rating (canarygrass; Preemergence, 250 g ai/ha): 85
- Plant response rating, Nightshade (nightshade; 31 g ai/ha): 0
- Plant response rating, Nightshade (nightshade; 62 g ai/ha): 0
- Plant response rating, Nightshade (nightshade; 125 g ai/ha): 5
- Plant response rating, Nightshade (nightshade; 250 g ai/ha): 10
- Plant response rating, Oilseed Rape (oilseed rape; 62 g ai/ha): 0
- Plant response rating, Oilseed Rape (oilseed rape; 125 g ai/ha): 0
- Plant response rating, Oilseed Rape (oilseed rape; 31 g ai/ha): 0
- Plant response rating, Oilseed Rape (oilseed rape; 250 g ai/ha): 5
- Plant response rating, Goosegrass (goosegrass; 31 g ai/ha): 0
- Plant response rating, Goosegrass (goosegrass; 62 g ai/ha): 0
- Plant response rating, Goosegrass (goosegrass; 125 g ai/ha): 70
- Plant response rating, Goosegrass (goosegrass; 250 g ai/ha): 90
- Plant response rating, Blackgrass (blackgrass; Preemergence, 62 g ai/ha): 70
- Plant response rating, Blackgrass (blackgrass; Preemergence, 125 g ai/ha): 85
- Plant response rating, Blackgrass (blackgrass; Preemergence, 31 g ai/ha): 30
- Plant response rating (blackgrass; Preemergence, 250 g ai/ha): 90
- Plant response rating, Nutsedge, Yellow (nutsedge, yellow; 31 g ai/ha): 15
- Plant response rating, Nutsedge, Yellow (nutsedge, yellow; 62 g ai/ha): 15
- Plant response rating, Nutsedge, Yellow (nutsedge, yellow; 125 g ai/ha): 20
- Plant response rating, Nutsedge, Yellow (nutsedge, yellow; 250 g ai/ha): 75

Structure (SMILES): O=C1NCC(c2ccc(C(F)(F)F)cc2)C1C(=O)Nc1cccc(F)c1F (racemic) [Compound 202]
- Plant response rating, Velvetleaf (velvetleaf; 31 g ai/ha): 0
- Plant response rating, Velvetleaf (velvetleaf; 62 g ai/ha): 0
- Plant response rating, Velvetleaf (velvetleaf; 125 g ai/ha): 0
- Plant response rating, Velvetleaf (velvetleaf; 250 g ai/ha): 40
- Plant response rating (canarygrass; Postemergence, 31 g ai/ha): 0
- Plant response rating (canarygrass; Postemergence, 62 g ai/ha): 0
- Plant response rating (canarygrass; Postemergence, 125 g ai/ha): 0
- Plant response rating (canarygrass; Postemergence, 250 g ai/ha): 0
- Plant response rating, Canarygrass (canarygrass; Preemergence, 62 g ai/ha): 10
- Plant response rating, Canarygrass (canarygrass; Preemergence, 31 g ai/ha): 5
- Plant response rating (canarygrass; Preemergence, 125 g ai/ha): 60
- Plant response rating (canarygrass; Preemergence, 250 g ai/ha): 75
- Plant response rating, Nightshade (nightshade; 31 g ai/ha): 0
- Plant response rating, Nightshade (nightshade; 62 g ai/ha): 50
- Plant response rating, Nightshade (nightshade; 125 g ai/ha): 90
- Plant response rating, Nightshade (nightshade; 250 g ai/ha): 80
- Plant response rating (oilseed rape; 31 g ai/ha): 60
- Plant response rating (oilseed rape; 62 g ai/ha): 70
- Plant response rating (oilseed rape; 125 g ai/ha): 60
- Plant response rating (oilseed rape; 250 g ai/ha): 55
- Plant response rating, Oilseed Rape (oilseed rape; 62 g ai/ha): 35
- Plant response rating, Oilseed Rape (oilseed rape; 125 g ai/ha): 45
- Plant response rating, Oilseed Rape (oilseed rape; 31 g ai/ha): 0
- Plant response rating, Oilseed Rape (oilseed rape; 250 g ai/ha): 75
- Plant response rating, Goosegrass (goosegrass; 31 g ai/ha): 35
- Plant response rating, Goosegrass (goosegrass; 62 g ai/ha): 70
- Plant response rating, Goosegrass (goosegrass; 125 g ai/ha): 90
- Plant response rating, Goosegrass (goosegrass; 250 g ai/ha): 98
- Plant response rating (blackgrass; Postemergence, 31 g ai/ha): 0
- Plant response rating (blackgrass; Postemergence, 62 g ai/ha): 5
- Plant response rating (blackgrass; Postemergence, 125 g ai/ha): 10
- Plant response rating (blackgrass; Postemergence, 250 g ai/ha): 40
- Plant response rating, Blackgrass (blackgrass; Preemergence, 62 g ai/ha): 35
- Plant response rating, Blackgrass (blackgrass; Preemergence, 31 g ai/ha): 30
- Plant response rating (blackgrass; Preemergence, 125 g ai/ha): 65
- Plant response rating (blackgrass; Preemergence, 250 g ai/ha): 75
- Plant response rating, Nutsedge, Yellow (nutsedge, yellow; 31 g ai/ha): 0
- Plant response rating, Nutsedge, Yellow (nutsedge, yellow; 62 g ai/ha): 0
- Plant response rating, Nutsedge, Yellow (nutsedge, yellow; 125 g ai/ha): 0
- Plant response rating, Nutsedge, Yellow (nutsedge, yellow; 250 g ai/ha): 0

Structure (SMILES): O=C1NCC(c2ccc(C(F)(F)F)cc2)C1C(=O)Nc1cccc(F)c1F (stereo not shown) [Compound 80, N-(2,3-difluorophenyl)-2-oxo-4-[4-(trifluoromethyl)phenyl]-3-pyrrolidinecarboxamide]
- Plant response rating, Velvetleaf (velvetleaf; 16 g ai/ha): 0
- Plant response rating, Velvetleaf (velvetleaf; 31 g ai/ha): 0
- Plant response rating, Velvetleaf (velvetleaf; 62 g ai/ha): 0
- Plant response rating, Velvetleaf (velvetleaf; 125 g ai/ha): 0
- Plant response rating, Velvetleaf (velvetleaf; 250 g ai/ha): 0
- Plant response rating (canarygrass; Postemergence, 31 g ai/ha): 0
- Plant response rating (canarygrass; Postemergence, 62 g ai/ha): 0
- Plant response rating (canarygrass; Postemergence, 125 g ai/ha): 0
- Plant response rating (canarygrass; Postemergence, 250 g ai/ha): 0
- Plant response rating, Canarygrass (canarygrass; Preemergence, 62 g ai/ha): 0
- Plant response rating, Canarygrass (canarygrass; Preemergence, 31 g ai/ha): 0
- Plant response rating (canarygrass; Preemergence, 125 g ai/ha): 10
- Plant response rating (canarygrass; Preemergence, 250 g ai/ha): 20
- Plant response rating, Nightshade (nightshade; 16 g ai/ha): 50
- Plant response rating, Nightshade (nightshade; 62 g ai/ha): 60
- Plant response rating, Nightshade (nightshade; 125 g ai/ha): 70
- Plant response rating, Nightshade (nightshade; 250 g ai/ha): 70
- Plant response rating (oilseed rape; 31 g ai/ha): 30
- Plant response rating (oilseed rape; 62 g ai/ha): 50
- Plant response rating (oilseed rape; 125 g ai/ha): 45
- Plant response rating (oilseed rape; 250 g ai/ha): 60
- Plant response rating, Oilseed Rape (oilseed rape; 62 g ai/ha): 10
- Plant response rating, Oilseed Rape (oilseed rape; 125 g ai/ha): 10
- Plant response rating, Oilseed Rape (oilseed rape; 31 g ai/ha): 0
- Plant response rating, Oilseed Rape (oilseed rape; 250 g ai/ha): 30
- Plant response rating, Goosegrass (goosegrass; 16 g ai/ha): 10
- Plant response rating, Goosegrass (goosegrass; 31 g ai/ha): 30
- Plant response rating, Goosegrass (goosegrass; 62 g ai/ha): 60
- Plant response rating, Goosegrass (goosegrass; 125 g ai/ha): 70
- Plant response rating, Goosegrass (goosegrass; 250 g ai/ha): 80
- Plant response rating (blackgrass; Postemergence, 31 g ai/ha): 5
- Plant response rating (blackgrass; Postemergence, 62 g ai/ha): 5
- Plant response rating (blackgrass; Postemergence, 125 g ai/ha): 5
- Plant response rating (blackgrass; Postemergence, 250 g ai/ha): 5
- Plant response rating, Blackgrass (blackgrass; Preemergence, 62 g ai/ha): 10
- Plant response rating, Blackgrass (blackgrass; Preemergence, 31 g ai/ha): 5
- Plant response rating (blackgrass; Preemergence, 125 g ai/ha): 20
- Plant response rating (blackgrass; Preemergence, 250 g ai/ha): 25
- Plant response rating, Nutsedge, Yellow (nutsedge, yellow; 16 g ai/ha): 0
- Plant response rating, Nutsedge, Yellow (nutsedge, yellow; 31 g ai/ha): 0
- Plant response rating, Nutsedge, Yellow (nutsedge, yellow; 62 g ai/ha): 0
- Plant response rating, Nutsedge, Yellow (nutsedge, yellow; 125 g ai/ha): 0
- Plant response rating, Nutsedge, Yellow (nutsedge, yellow; 250 g ai/ha): 0

Structure (SMILES): O=C1NCC(c2ccc(OC(F)F)cc2)C1C(=O)Nc1cccc(F)c1F (racemic) [Compound 350]
- Plant response rating, Velvetleaf (velvetleaf; 31 g ai/ha): 0
- Plant response rating, Velvetleaf (velvetleaf; 62 g ai/ha): 0
- Plant response rating, Velvetleaf (velvetleaf; 125 g ai/ha): 0
- Plant response rating, Velvetleaf (velvetleaf; 250 g ai/ha): 0
- Plant response rating, Nightshade (nightshade; 31 g ai/ha): 0
- Plant response rating, Nightshade (nightshade; 62 g ai/ha): 0
- Plant response rating, Nightshade (nightshade; 125 g ai/ha): 50
- Plant response rating, Nightshade (nightshade; 250 g ai/ha): 80
- Plant response rating, Goosegrass (goosegrass; 31 g ai/ha): 0
- Plant response rating, Goosegrass (goosegrass; 62 g ai/ha): 0
- Plant response rating, Goosegrass (goosegrass; 125 g ai/ha): 0
- Plant response rating, Goosegrass (goosegrass; 250 g ai/ha): 25
- Plant response rating, Nutsedge, Yellow (nutsedge, yellow; 31 g ai/ha): 0
- Plant response rating, Nutsedge, Yellow (nutsedge, yellow; 62 g ai/ha): 0
- Plant response rating, Nutsedge, Yellow (nutsedge, yellow; 125 g ai/ha): 0
- Plant response rating, Nutsedge, Yellow (nutsedge, yellow; 250 g ai/ha): 15
